In patent US7767854B2, “N-substituted phenylacetamide derivative and pharmaceutical composition containing the same” (Dainippon Sumitomo Pharma Co., Ltd., priority 2005, dated 2010):

Tested on: male Std: Wistar rats
Test: Pain test by plantar thermal stimuli (plantar test)
Assay type: in vivo
Details: Rattus norvegicus, 4 h, 50 μl of 0.03% (W/V) solution i.pl. into right hind-paw; 4 hours after administration; cut-off 25 seconds; read-out: % MPE (percent maximum possible effect, withdrawal latency)
Experimental: Experiment 1: Pain Test by Plantar Thermal Stimuli (Plantar Test)
In the present experiment, the analgesic effect of the compounds of the invention was evaluated by the measurements of withdrawal latency to noxious thermal stimuli, according to the methods of Hargreaves, et al., [Pain, 32, 77-88 (1988)] and Field, et al., [J. Pharmacol. Exp. Ther., 282, 1242-1246 (1997)].
In detail, the experiment was carried out using male Std: Wistar rats (4 rats/group; body weight, 170-220 g) and a plantar test device (Model 7370, Ugo Basile) with infrared beam as a heat source. The rat was put into an experimental cage that is an acrylic box whose bottom is made of glass and was habituated therein. Then, the infrared beam was radiated to the plantar surface of right hind-paw thereof through the floor glass, and the withdrawal latency was measured every 5 minutes, 3 times. The intension of the infrared beam was adjusted so that the pre-drug administration latency was about 10 seconds. The cut-off time was set at 25 seconds in order to prevent a paw burn. The average of the latencies was calculated, and then it was defined as the value of the pre-drug administration latency of the test compound.
Next day, 50 μl of each solution of the test compounds [the compounds of the invention, the compounds of the comparative Examples and capsaicin (Sigma, U.S.A.)] or 50 μl of vehicle solvent (reference) was given to a right hind-paw of the rat by intraplantar injection (i. pl.) using a micro-syringe. The test compound was dissolved in a saline solution containing 10% Tween 80 (Sigma, U.S.A) and 10% ethanol to give a 0.03% (W/V) solution. The saline solution containing 10% Tween 80 and 10% ethanol was used as reference. Four hours after i.pl. administration of each the test compound or the reference to the rats, the experiment mentioned above was carried out, and then the post-drug administration latency was measured. The analgesic effects thereof were calculated with the following formula, which was known as a percent maximum possible effect (% MPE). % MPE=[(the value of post-drug latency−the value of pre-drug latency)/(25*−the value of pre-drug latency)]×100 *: cut-off time

**Q.** With `COc1cc(CC(=O)NC2CCC(C)CC2)ccc1O` (stereo not shown) [Comparative Example 1, 2-(4-hydroxy-3-methoxyphenyl)-N-(4-methyl-cyclohexyl)acetamide, reference compound] as the compound, how does the change in vivo at 300 µg/mL read?
**A.** The change in vivo at 300 µg/mL was 23.3%.

**Q.** Which change in vivo at 300 µg/mL does the source give for `COc1cc(CC(=O)NC2CCCCC2)ccc1O` [Comparative Example 2, N-cyclohexyl-2-(4-hydroxy-3-methoxyphenyl)-acetamide, reference compound] here?
**A.** The change in vivo at 300 µg/mL was 30.6%.

**Q.** With `CCCCCC1CCC(NC(=O)Cc2ccc(O)c(OC)c2)CC1` (stereo not shown) [Example 3, 2-(4-hydroxy-3-methoxyphenyl)-N-(4-pentyl-cyclohexyl)acetamide] as the compound, how does the change in vivo at 300 µg/mL read?
**A.** Its change in vivo at 300 µg/mL is 89.9%.

**Q.** With `CCC(C)(C)C1CCC(NC(=O)Cc2ccc(O)c(OC)c2)CC1` (stereo not shown) [Example 4] as the compound, how does the change in vivo at 300 µg/mL read?
**A.** Its change in vivo at 300 µg/mL is 56.6%.

**Q.** With `COc1cc(CC(=O)NC2CCC(C3CCCCC3)CC2)ccc1O` (stereo not shown) [Example 5] as the compound, how does the change in vivo at 300 µg/mL read?
**A.** Its change in vivo at 300 µg/mL is 59.2%.

**Q.** With `COc1cc(CC(=O)NC2CCC(c3ccccc3)CC2)ccc1O` (stereo not shown) [Example 6] as the compound, how does the change in vivo at 300 µg/mL read?
**A.** Its change in vivo at 300 µg/mL is 82.6%.

**Q.** For `CCCC[C@H]1CC[C@@H](NC(=O)Cc2ccc(O)c(OC)c2)CC1` [Example 7], which change in vivo at 300 µg/mL is on record?
**A.** The change in vivo at 300 µg/mL was 78.6%.

**Q.** Which change in vivo at 300 µg/mL does the source give for `CCCC1(CCC)CCC(NC(=O)Cc2ccc(O)c(OC)c2)CC1` [Example 9, N-(4,4-dipropylcyclohexyl)-2-(4-hydroxy-3-methoxyphenyl)acetamide] here?
**A.** Its change in vivo at 300 µg/mL is 64.7%.

**Q.** Which change in vivo at 300 µg/mL does the source give for `COc1cc(CC(=O)N[C@H]2CC[C@H](/C=C\C(C)C)CC2)ccc1O` [Example 14, 2-(4-hydroxy-3-methoxyphenyl)-N-{trans-4-[(Z)-3-methyl-1-butenyl]cyclohexyl}acetamide] here?
**A.** Its change in vivo at 300 µg/mL is 100%.

**Q.** How did the change in vivo at 300 µg/mL turn out when `COc1cc(CC(=O)N[C@H]2CC[C@H](/C=C\CC(C)C)CC2)ccc1O` [Example 15] was run?
**A.** Its change in vivo at 300 µg/mL is 94.4%.

**Q.** Which change in vivo at 300 µg/mL does the source give for `CCC/C=C\[C@H]1CC[C@H](NC(=O)Cc2ccc(O)c(OC)c2)CC1` [Example 17] here?
**A.** The change in vivo at 300 µg/mL was 74.9%.

**Q.** For `COc1cc(CC(=O)N[C@H]2CC[C@H](/C=C\C3CC3)CC2)ccc1O` [Example 18], which change in vivo at 300 µg/mL is on record?
**A.** The change in vivo at 300 µg/mL was 80.5%.

**Q.** How did the change in vivo at 300 µg/mL turn out when `C=C/C=C/[C@H]1CC[C@H](NC(=O)Cc2ccc(O)c(OC)c2)CC1` [Example 19] was run?
**A.** The change in vivo at 300 µg/mL was 35.9%.

**Q.** `CCOC(=O)/C=C/[C@H]1CC[C@H](NC(=O)Cc2ccc(O)c(OC)c2)CC1` [Example 20] was tested. Which change in vivo at 300 µg/mL did it give?
**A.** Its change in vivo at 300 µg/mL is 53.8%.

**Q.** How did the change in vivo at 300 µg/mL turn out when `COc1cc(CC(=O)N[C@H]2CC[C@H](/C=C/C(C)=O)CC2)ccc1O` [Example 21] was run?
**A.** The change in vivo at 300 µg/mL was 50.3%.

**Q.** `COc1cc(CC(=O)N[C@H]2CC[C@H](/C=C\CC(F)(F)F)CC2)ccc1O` [Example 23] was tested. Which change in vivo at 300 µg/mL did it give?
**A.** Its change in vivo at 300 µg/mL is 77.9%.

**Q.** For `COc1cc(CC(=O)N[C@H]2CC[C@H](C=C(C)C)CC2)ccc1O` [Example 24], which change in vivo at 300 µg/mL is on record?
**A.** Its change in vivo at 300 µg/mL is 72.4%.

**Q.** Which change in vivo at 300 µg/mL does the source give for `COc1cc(CC(=O)N[C@H]2CC[C@H](C=C3CCCC3)CC2)ccc1O` [Example 25] here?
**A.** Its change in vivo at 300 µg/mL is 98.3%.

**Q.** For `CCCC[C@H]1CC[C@H](NC(=O)Cc2ccc(O)c(OC)c2)CC1` [Example 28], which change in vivo at 300 µg/mL is on record?
**A.** Its change in vivo at 300 µg/mL is 87.1%.

**Q.** How did the change in vivo at 300 µg/mL turn out when `CCOC(=O)CC[C@H]1CC[C@H](NC(=O)Cc2ccc(O)c(OC)c2)CC1` [Example 29] was run?
**A.** The change in vivo at 300 µg/mL was 45.8%.

**Q.** How did the change in vivo at 300 µg/mL turn out when `CCCCC[C@H]1CC[C@H](NC(=O)Cc2ccc(O)c(OC)c2)CC1` [Example 30] was run?
**A.** The change in vivo at 300 µg/mL was 71.3%.

**Q.** How did the change in vivo at 300 µg/mL turn out when `CCC[C@H]1CC[C@H](NC(=O)Cc2ccc(O)c(OC)c2)CC1` [Example 31] was run?
**A.** Its change in vivo at 300 µg/mL is 54.3%.

**Q.** `COc1cc(CC(=O)N[C@H]2CC[C@H](CCC3CC3)CC2)ccc1O` [Example 32] was tested. Which change in vivo at 300 µg/mL did it give?
**A.** Its change in vivo at 300 µg/mL is 85.5%.

**Q.** `COc1cc(CC(=O)N[C@H]2CC[C@H](CC(C)C)CC2)ccc1O` [Example 33] was tested. Which change in vivo at 300 µg/mL did it give?
**A.** The change in vivo at 300 µg/mL was 73.3%.

**Q.** Which change in vivo at 300 µg/mL does the source give for `COc1cc(CC(=O)N[C@H]2CC[C@H](CC3CCCC3)CC2)ccc1O` [Example 34] here?
**A.** The change in vivo at 300 µg/mL was 97.8%.

**Q.** `CCCCO[C@H]1CC[C@H](NC(=O)Cc2ccc(O)c(OC)c2)CC1` [Example 35, N-(trans-4-butoxycyclohexyl)-2-(4-hydroxy-3-methoxyphenyl)acetamide] was tested. Which change in vivo at 300 µg/mL did it give?
**A.** Its change in vivo at 300 µg/mL is 42.8%.

**Q.** For `COc1cc(CC(=O)N[C@H]2CC[C@H](OCCC(C)C)CC2)ccc1O` [Example 37], which change in vivo at 300 µg/mL is on record?
**A.** Its change in vivo at 300 µg/mL is 49.9%.

**Q.** Which change in vivo at 300 µg/mL does the source give for `COc1cc(CC(=O)N[C@H]2CC[C@H](OCCCC(F)(F)F)CC2)ccc1O` [Example 38] here?
**A.** The change in vivo at 300 µg/mL was 57.6%.
